The values below come from ChEMBL document CHEMBL4152193, “Phthalimide conjugations for the degradation of oncogenic PI3K” (Eur J Med Chem, 2018).

A word on the IC50: it is the point on the concentration scale where inhibition reaches its midpoint. A lower IC50 goes with greater potency in that assay. The term inhibition denotes the change of the read-out against control, counted positive when it falls.

Experiment [1] addresses Phosphatidylinositol 4,5-bisphosphate 3-kinase catalytic subunit alpha isoform (Homo sapiens, UniProt P42336). The experiment is described as follows: Inhibition of PI3Kalpha (unknown origin) using PIP2 as substrate after 1 hr by Kinase-Glo luminescent kinase assay.
For experiment [2], the system named is HepG2. Nature of the experiment: Antiproliferative activity against human HepG2 cells at 1 to 50 uM after 48 hrs by MTT assay. Type of experiment: functional, cell-based.
Experiment [3] addresses T1, Protein cereblon-pI3K (Homo sapiens) (UniProt P42338+P48736+P42336+O00329+Q96SW2). Nature of the experiment: Protac activity against PI3K/E3 ligase in human HepG2 cells assessed as reduction in Akt phosphorylation at Ser-473 residue in human HepG2 cells after 24 hrs by Western blot analysis. The class given is cell-based. In general terms: Immunoblotting shows a protein as a band on a membrane.

Experiment [4] has as its target T1, Protein cereblon-pI3K (Homo sapiens). The experiment is described as follows: Protac activity against PI3K/E3 ligase in human HepG2 cells assessed as reduction in phosphorylated S6K protein level in human HepG2 cells after 24 hrs by Western blot analysis. The class given is cell-based.
Experiment [5] has the same target. Nature of the experiment: Protac activity against PI3K/E3 ligase in human HepG2 cells assessed as reduction in phosphorylated GSK3beta protein level at 10 uM in human HepG2 cells by Western blot analysis. The class given is cell-based. The conditions noted are these: TDE = time-dependent effect.
Experiment [6] shares this target. The experiment is described as follows: Protac activity against PI3K/E3 ligase in human HepG2 cells assessed as reduction in cyclin D1 protein level at 10 uM in human HepG2 cells by Western blot analysis. The conditions noted are these: TDE = time-dependent effect. The class given is cell-based.
The target is the same in experiment [7]. The experiment is described as follows: Protac activity against PI3K/E3 ligase in human HepG2 cells assessed as increase in conversion of LC3B-1 to LC3B-2 at 10 uM after 3 hrs in human HepG2 cells by Western blot analysis. The class given is cell-based.
For experiment [8], the system named is HepG2. Nature of the experiment: Antiproliferative activity against human HepG2 cells assessed as inhibition of cell proliferation at 10 uM after 48 hrs by MTT assay. Type of experiment: functional. The conditions noted are these: HepG2, 48 h. In general terms: Tetrazolium dyes change colour on reduction, which living cells bring about.
Experiment [9] addresses T1, Protein cereblon-pI3K (Homo sapiens). Nature of the experiment: Protac activity against PI3K/E3 ligase in human HepG2 cells assessed as induction of p110alpha protein degradation at 10 uM in human HepG2 cells by Western blot analysis. The class given is cell-based.
In experiment [10] the test system is HepG2. Nature of the experiment: Induction of apoptosis in human HepG2 cells assessed as necrotic cells at 5 uM after 24 hrs by Annexin V-FITC/propidium iodide staining-based flow cytometric analysis (reference value: 0.052%). The class given is functional. A general note: Flow cytometry measures light scatter and fluorescence of single cells or particles in a stream.

The test system of experiment [11] is HepG2. The experiment is described as follows: Induction of apoptosis in human HepG2 cells assessed as late apoptotic cells at 5 uM after 24 hrs by Annexin V-FITC/propidium iodide staining-based flow cytometric analysis (reference value: 7.34%). Type of experiment: functional.
In experiment [12] the test system is HepG2. Nature of the experiment: Induction of apoptosis in human HepG2 cells assessed as early apoptotic cells at 5 uM after 24 hrs by Annexin V-FITC/propidium iodide staining-based flow cytometric analysis (reference value: 2.46%). Type of experiment: functional.
Experiment [13] relates to HepG2. Nature of the experiment: Induction of apoptosis in human HepG2 cells assessed as viable cells at 5 uM after 24 hrs by Annexin V-FITC/propidium iodide staining-based flow cytometric analysis (reference value: 90.1%). The class given is functional. The conditions noted are these: HepG2, 24 h, read-out: Activity.
For experiment [14], the system named is HepG2. Nature of the experiment: Induction of apoptosis in human HepG2 cells assessed as necrotic cells at 10 uM after 24 hrs by Annexin V-FITC/propidium iodide staining-based flow cytometric analysis (reference value: 0.052%). Type of experiment: functional.
Experiment [15] deals with HepG2. Nature of the experiment: Induction of apoptosis in human HepG2 cells assessed as late apoptotic cells at 10 uM after 24 hrs by Annexin V-FITC/propidium iodide staining-based flow cytometric analysis (reference value: 7.34%). Type of experiment: functional.
Experiment [16] deals with HepG2. The experiment is described as follows: Induction of apoptosis in human HepG2 cells assessed as early apoptotic cells at 10 uM after 24 hrs by Annexin V-FITC/propidium iodide staining-based flow cytometric analysis (reference value: 2.46%). The class given is functional.
Experiment [17] concerns HepG2. Nature of the experiment: Induction of apoptosis in human HepG2 cells assessed as viable cells at 10 uM after 24 hrs by Annexin V-FITC/propidium iodide staining-based flow cytometric analysis (reference value: 90.1%). Type of experiment: functional. The conditions noted are these: HepG2, 24 h, read-out: Activity.
The subject of experiment [18] is HepG2. The experiment is described as follows: Induction of apoptosis in human HepG2 cells assessed as necrotic cells at 25 uM after 24 hrs by Annexin V-FITC/propidium iodide staining-based flow cytometric analysis (reference value: 0.052%). Type of experiment: functional.
Experiment [19] has as its system HepG2. The experiment is described as follows: Induction of apoptosis in human HepG2 cells assessed as late apoptotic cells at 25 uM after 24 hrs by Annexin V-FITC/propidium iodide staining-based flow cytometric analysis (reference value: 7.34%). The class given is functional.
Experiment [20] relates to HepG2. The experiment is described as follows: Induction of apoptosis in human HepG2 cells assessed as early apoptotic cells at 25 uM after 24 hrs by Annexin V-FITC/propidium iodide staining-based flow cytometric analysis (reference value: 2.46%). Type of experiment: functional.
The subject of experiment [21] is HepG2. The experiment is described as follows: Induction of apoptosis in human HepG2 cells assessed as viable cells at 25 uM after 24 hrs by Annexin V-FITC/propidium iodide staining-based flow cytometric analysis (reference value: 90.1%). The class given is functional. The conditions noted are these: HepG2, 24 h, read-out: Activity.
The test system of experiment [22] is HepG2. The experiment is described as follows: Cell cycle arrest in human HepG2 cells assessed as accumulation at G0/G1 phase at 5 uM after 24 hrs by flow cytometric analysis (reference value: 86.6%). The class given is functional.
Experiment [23] concerns HepG2. Nature of the experiment: Cell cycle arrest in human HepG2 cells assessed as accumulation at S phase at 5 uM after 24 hrs by flow cytometric analysis (reference value: 3.77%). The class given is functional.
Experiment [24] relates to HepG2. The experiment is described as follows: Cell cycle arrest in human HepG2 cells assessed as accumulation at G2/M phase at 5 uM after 24 hrs by flow cytometric analysis (reference value: 9.25%). The class given is functional.
Experiment [25] deals with HepG2. The experiment is described as follows: Cell cycle arrest in human HepG2 cells assessed as accumulation at G0/G1 phase at 10 uM after 24 hrs by flow cytometric analysis (reference value: 86.6%). Type of experiment: functional.
Experiment [26] relates to HepG2. Nature of the experiment: Cell cycle arrest in human HepG2 cells assessed as accumulation at S phase at 10 uM after 24 hrs by flow cytometric analysis (reference value: 3.77%). The class given is functional.
The subject of experiment [27] is HepG2. Nature of the experiment: Cell cycle arrest in human HepG2 cells assessed as accumulation at G2/M phase at 10 uM after 24 hrs by flow cytometric analysis (reference value: 9.25%). The class given is functional.
Experiment [28] has as its system HepG2. Nature of the experiment: Cell cycle arrest in human HepG2 cells assessed as accumulation at G0/G1 phase at 25 uM after 24 hrs by flow cytometric analysis (reference value: 86.6%). Type of experiment: functional.
Experiment [29] relates to HepG2. Nature of the experiment: Cell cycle arrest in human HepG2 cells assessed as accumulation at S phase at 25 uM after 24 hrs by flow cytometric analysis (reference value: 3.77%). Type of experiment: functional.
Experiment [30] has as its system HepG2. Nature of the experiment: Cell cycle arrest in human HepG2 cells assessed as accumulation at G2/M phase at 25 uM after 24 hrs by flow cytometric analysis (reference value: 9.25%). The class given is functional.
Experiment [31] has as its system HepG2. Nature of the experiment: Induction of autophagy in GFP-LC3 transfected human HepG2 cells assessed as increase in LC3 puncta at 10 uM after 6 hrs by DAPI staining-based fluorescence microscopy. The class given is functional, cell-based.

The source made the active and inactive calls. The rule behind the calls is not given here.

In [1], `O=C1CCC(N2C(=O)c3cccc(NC(=O)CCCCCn4cc(CN5CCN(c6nc(N7CCOCC7)nc(-n7c(C(F)F)nc8ccccc87)n6)CC5)nn4)c3C2=O)C(=O)N1` (stereo unspecified) registered an IC50 of 86 nM. The Activity result with HepG2 [2] was “Dose-dependent effect”; in experiment [3] it was “Dose-dependent effect”; in experiment [4] it was “Dose-dependent effect”; in [5] it was “Tde”; in experiment [6] it was “Tde”; in [9], below 50%. For the same molecule, the outcome in [7] was Active. The inhibition at 10 µM with HepG2 [8] was at most 50%.

For the molecule `O=C(CCC(=O)N1CCN(c2nc(N3CCOCC3)nc(-n3c(C(F)F)nc4ccccc43)n2)CC1)NCCCC(=O)Nc1cccc2c1C(=O)N(C1CCC(=O)NC1=O)C2=O` (stereo unspecified), in experiment [1], the midpoint of inhibition, the IC50, lay at 18 nM. Besides, the Activity result is “Dose-dependent effect” in the experiment on HepG2 [2]; “Dose-dependent effect” in [3]; “Dose-dependent effect” in experiment [4]; “Tde” in experiment [5]; “Tde” in [6]; below 50% in experiment [9]. In [7], the outcome was Active. Also, the inhibition at 10 µM with HepG2 [8] is at most 50%.

Consider `O=C1CCC(N2C(=O)c3cccc(NC(=O)CCCn4cc(CN5CCN(c6nc(N7CCOCC7)nc(-n7c(C(F)F)nc8ccccc87)n6)CC5)nn4)c3C2=O)C(=O)N1` (stereo unspecified), for which it took 90 nM to reach half-maximal inhibition in [1] (IC50). Also, the Activity entry was “Dose-dependent effect” in the experiment on HepG2 [2]; “Dose-dependent effect” in [3]; “Dose-dependent effect” in [4]; “Tde” in [5]; “Tde” in [6]; below 50% in [9]. Also, the result in experiment [7] was Active. Further, the inhibition at 10 µM in the experiment with HepG2 [8] was at most 50%.

On to `O=C(CCC(=O)N1CCN(c2nc(N3CCOCC3)nc(-n3c(C(F)F)nc4ccccc43)n2)CC1)NCCCCCC(=O)Nc1cccc2c1C(=O)N(C1CCC(=O)NC1=O)C2=O` (stereo unspecified), for which half-maximal inhibition in [1] (IC50) was put at 24 nM. Also, the Activity entry was “Dose-dependent effect” in the experiment with HepG2 [2]; “Dose-dependent effect” in experiment [3]; “Dose-dependent effect” in [4]; “Tde” in experiment [5]; “Tde” in experiment [6]; 0.152% with HepG2 [10]. Also, the Activity in the experiment with HepG2 [11] worked out at 17.9%; in the experiment with HepG2 [12], 10.3%; with HepG2 [14], 0.4%; in the experiment on HepG2 [15] it was 19.3%; in the experiment on HepG2 [16], 14.7%; in the experiment with HepG2 [18] it was 0.426%. The Activity in the experiment on HepG2 [19] amounted to 20.4%; in the experiment with HepG2 [20], 10.3%; in the experiment on HepG2 [22], 85.6%; with HepG2 [23], 3.79%; with HepG2 [24], 9.99%; with HepG2 [25], 85.6%. For the same molecule, the Activity in the experiment with HepG2 [26] was 3.49%; with HepG2 [27] it was 10.5%; in the experiment with HepG2 [28], 81.3%; with HepG2 [29], 5.73%; in the experiment with HepG2 [30] it was 12.9%; in experiment [9], below 50%. The outcome (in experiment [7]; in the experiment on HepG2 [31]) was Active. The viability at 5 µM in the experiment with HepG2 [13] stood at 71.7%. The viability at 10 µM with HepG2 [17] stood at 65.6%. Further, the viability at 25 µM in the experiment with HepG2 [21] was determined as 68.9%. Besides, in the experiment with HepG2 [8], the inhibition at 10 µM is at most 50%.

Molecule `O=C1CCC(N2C(=O)c3cccc(NC(=O)CCCCCN4CCN(c5nc(N6CCOCC6)nc(-n6c(C(F)F)nc7ccccc76)n5)CC4)c3C2=O)C(=O)N1` (stereo unspecified) gave an IC50 in [1] of 2850 nM.

The molecule `O=C(CCC(=O)NCCCC(=O)Nc1cccc2c1C(=O)N(C1CCC(=O)NC1=O)C2=O)NCCCCCC(=O)N1CCN(c2nc(N3CCOCC3)nc(-n3c(C(F)F)nc4ccccc43)n2)CC1` (stereo unspecified) yielded an IC50 in experiment [1] of 38 nM. The result in the experiment with HepG2 [2] was inactive.
